Source: the supplement of paper PMC10307832

How the values were obtained:
Assay in all cases: relative viability (nuclei count vs DMSO), 5 days (fraction); higher = more cells survive
[1] = compound: C1COCCN1C2=NC(=NC3=C2OC4=C3C=CC=N4)C5=CC(=CC=C5)NC(=O)C6=CN=C(C=C6)N + CC1(C)CCC(c2ccc(Cl)cc2)=C(CN2CCN(c3ccc(C(=O)NS(=O)(=O)c4ccc(N[C@H](CCN5CCOCC5)CSc5ccccc5)c(S(=O)(=O)C(F)(F)F)c4)cc3)CC2)C1 [Navitoclax] (partner 0.5 µM)
Procedure, shortened: (§1)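 A single step with final 0.05% Triton X-100, 1% formaldehyde and 1 ug/ml Hoechst fixed the cells and stained nuclei 5 days after treatment. Lung cancer cell lines in 1536-well plates had been treated by pin tool the day after seeding with one drug alone or a fixed anchor-drug dose plus five library-drug doses (not always all listed) in √10 steps, and nuclei were counted on 4× images. Relative viability is the ratio of nuclei in treated wells to nuclei in vehicle wells, taken as the median of duplicate plates.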

[2] = compound: C1COCCN1C2=NC(=NC3=C2OC4=C3C=CC=N4)C5=CC(=CC=C5)NC(=O)C6=CN=C(C=C6)N + CS(=O)(=O)CCNCc1ccc(-c2ccc3ncnc(Nc4ccc(OCc5cccc(F)c5)c(Cl)c4)c3c2)o1 [Lapatinib] (partner 2 µM)
Procedure, shortened: as §1

[3] = compound: CN1CCC(CNc2ccc3ncc(-c4cccc(OC(F)(F)F)c4)n3n2)CC1 [SGI-1776] + O=C(CCCCCCC(=O)Nc1ccccc1)NO [Vorinostat] (partner 1 µM)
Procedure, shortened: as §1

[4] = compound: Nc1ccccc1NC(=O)c1ccc(CNC(=O)OCc2cccnc2)cc1 [Entinostat] + Cc1nc(Nc2ncc(C(=O)Nc3c(C)cccc3Cl)s2)cc(N2CCN(CCO)CC2)n1 [Dasatinib] (partner 0.075 µM)
Procedure, shortened: as §1

LU99A
relative viability ([1]; first compound 0.02 µM): 0.779 | relative viability ([1]; first compound 0.06325 µM): 0.842 | relative viability ([1]; first compound 0.2 µM): 0.786 | relative viability ([1]; first compound 0.6325 µM): 0.587 | relative viability ([1]; first compound 2 µM): 0.277 | relative viability ([2]; first compound 0.02 µM): 1.1 | relative viability ([2]; first compound 0.06325 µM): 1.04 | relative viability ([2]; first compound 0.2 µM): 0.92 | relative viability ([2]; first compound 0.6325 µM): 0.64 | relative viability ([2]; first compound 2 µM): 0.35 | relative viability ([3]; first compound 0.08 µM): 0.463 | relative viability ([3]; first compound 0.8 µM): 0.531 | relative viability ([3]; first compound 2.53 µM): 0.56 | relative viability ([3]; first compound 8 µM): 0.443 | relative viability ([4]; first compound 0.02 µM): 0.529 | relative viability ([4]; first compound 0.06325 µM): 0.577 | relative viability ([4]; first compound 0.2 µM): 0.451 | relative viability ([4]; first compound 0.6325 µM): 0.477 | relative viability ([4]; first compound 2 µM): 0.439

NCI-H358
relative viability ([2]; first compound 0.02 µM): 0.438 | relative viability ([2]; first compound 0.06325 µM): 0.45 | relative viability ([2]; first compound 0.2 µM): 0.34 | relative viability ([2]; first compound 0.6325 µM): 0.387 | relative viability ([2]; first compound 2 µM): 0.355 | relative viability ([3]; first compound 0.08 µM): 0.686 | relative viability ([3]; first compound 0.8 µM): 1.06 | relative viability ([3]; first compound 2.53 µM): 0.634 | relative viability ([3]; first compound 8 µM): 0.625 | relative viability ([4]; first compound 0.02 µM): 0.181 | relative viability ([4]; first compound 0.06325 µM): 0.136 | relative viability ([4]; first compound 0.2 µM): 0.158 | relative viability ([4]; first compound 0.6325 µM): 0.115 | relative viability ([4]; first compound 2 µM): 0.109

NCI-H441
relative viability ([1]; first compound 0.02 µM): 0.546 | relative viability ([1]; first compound 0.06325 µM): 0.566 | relative viability ([1]; first compound 0.2 µM): 0.571 | relative viability ([1]; first compound 0.6325 µM): 0.665 | relative viability ([1]; first compound 2 µM): 0.297 | relative viability ([3]; first compound 0.08 µM): 0.929 | relative viability ([3]; first compound 0.8 µM): 0.761 | relative viability ([3]; first compound 2.53 µM): 0.867 | relative viability ([3]; first compound 8 µM): 0.658 | relative viability ([4]; first compound 0.02 µM): 0.705 | relative viability ([4]; first compound 0.06325 µM): 0.602 | relative viability ([4]; first compound 0.2 µM): 0.557 | relative viability ([4]; first compound 0.6325 µM): 0.259 | relative viability ([4]; first compound 2 µM): 0.124

NCI-H522
relative viability ([3]; first compound 0.08 µM): 0.92 | relative viability ([3]; first compound 0.8 µM): 0.896 | relative viability ([3]; first compound 2.53 µM): 0.903 | relative viability ([3]; first compound 8 µM): 0.858 | relative viability ([4]; first compound 0.02 µM): 0.882 | relative viability ([4]; first compound 0.06325 µM): 1.14 | relative viability ([4]; first compound 0.2 µM): 1.16 | relative viability ([4]; first compound 0.6325 µM): 1.23 | relative viability ([4]; first compound 2 µM): 0.795

NCI-H650
relative viability ([2]; first compound 0.02 µM): 0.913 | relative viability ([2]; first compound 0.06325 µM): 0.915 | relative viability ([2]; first compound 0.2 µM): 0.891 | relative viability ([2]; first compound 0.6325 µM): 1.02 | relative viability ([2]; first compound 2 µM): 0.517 | relative viability ([3]; first compound 0.08 µM): 0.536 | relative viability ([3]; first compound 0.8 µM): 0.453 | relative viability ([3]; first compound 2.53 µM): 0.477 | relative viability ([3]; first compound 8 µM): 0.376 | relative viability ([4]; first compound 0.02 µM): 0.496 | relative viability ([4]; first compound 0.06325 µM): 0.498 | relative viability ([4]; first compound 0.2 µM): 0.455 | relative viability ([4]; first compound 0.6325 µM): 0.357 | relative viability ([4]; first compound 2 µM): 0.26

NCI-H661
relative viability ([2]; first compound 0.02 µM): 0.53 | relative viability ([2]; first compound 0.06325 µM): 0.554 | relative viability ([2]; first compound 0.2 µM): 0.525 | relative viability ([2]; first compound 0.6325 µM): 0.351 | relative viability ([2]; first compound 2 µM): 0.406 | relative viability ([3]; first compound 0.08 µM): 0.822 | relative viability ([3]; first compound 0.8 µM): 0.805 | relative viability ([3]; first compound 2.53 µM): 0.871 | relative viability ([3]; first compound 8 µM): 0.829 | relative viability ([4]; first compound 0.02 µM): 1.04 | relative viability ([4]; first compound 0.06325 µM): 0.967 | relative viability ([4]; first compound 0.2 µM): 1.03 | relative viability ([4]; first compound 0.6325 µM): 0.771 | relative viability ([4]; first compound 2 µM): 0.372

NCI-H1299
relative viability ([1]; first compound 0.02 µM): 1.04 | relative viability ([1]; first compound 0.06325 µM): 1.05 | relative viability ([1]; first compound 0.2 µM): 1.01 | relative viability ([1]; first compound 0.6325 µM): 1.07 | relative viability ([1]; first compound 2 µM): 0.976 | relative viability ([2]; first compound 0.02 µM): 0.929 | relative viability ([2]; first compound 0.06325 µM): 0.953 | relative viability ([2]; first compound 0.2 µM): 0.954 | relative viability ([2]; first compound 0.6325 µM): 0.975 | relative viability ([2]; first compound 2 µM): 0.691

NCI-H1563
relative viability ([2]; first compound 0.02 µM): 0.906 | relative viability ([2]; first compound 0.06325 µM): 0.82 | relative viability ([2]; first compound 0.2 µM): 0.857 | relative viability ([2]; first compound 0.6325 µM): 0.72 | relative viability ([2]; first compound 2 µM): 0.719 | relative viability ([4]; first compound 0.02 µM): 0.465 | relative viability ([4]; first compound 0.06325 µM): 0.48 | relative viability ([4]; first compound 0.2 µM): 0.438 | relative viability ([4]; first compound 0.6325 µM): 0.461 | relative viability ([4]; first compound 2 µM): 0.42

NCI-H1623
relative viability ([4]; first compound 0.02 µM): 0.644 | relative viability ([4]; first compound 0.06325 µM): 0.525 | relative viability ([4]; first compound 0.2 µM): 0.478 | relative viability ([4]; first compound 0.6325 µM): 0.412 | relative viability ([4]; first compound 2 µM): 0.366

NCI-H1648
relative viability ([3]; first compound 0.08 µM): 0.476 | relative viability ([3]; first compound 0.8 µM): 0.555 | relative viability ([3]; first compound 2.53 µM): 0.294 | relative viability ([3]; first compound 8 µM): 0.39

NCI-H1703
relative viability ([1]; first compound 0.02 µM): 0.874 | relative viability ([1]; first compound 0.06325 µM): 1.03 | relative viability ([1]; first compound 0.2 µM): 0.983 | relative viability ([1]; first compound 0.6325 µM): 0.646 | relative viability ([1]; first compound 2 µM): 0.416 | relative viability ([2]; first compound 0.02 µM): 1.17 | relative viability ([2]; first compound 0.06325 µM): 1.21 | relative viability ([2]; first compound 0.2 µM): 0.761 | relative viability ([2]; first compound 0.6325 µM): 0.798 | relative viability ([2]; first compound 2 µM): 0.308

NCI-H1792
relative viability ([1]; first compound 0.02 µM): 0.571 | relative viability ([1]; first compound 0.06325 µM): 0.675 | relative viability ([1]; first compound 0.2 µM): 0.718 | relative viability ([1]; first compound 0.6325 µM): 0.53 | relative viability ([1]; first compound 2 µM): 0.462 | relative viability ([2]; first compound 0.02 µM): 0.882 | relative viability ([2]; first compound 0.06325 µM): 0.904 | relative viability ([2]; first compound 0.2 µM): 0.874 | relative viability ([2]; first compound 0.6325 µM): 0.925 | relative viability ([2]; first compound 2 µM): 0.376 | relative viability ([4]; first compound 0.02 µM): 0.692 | relative viability ([4]; first compound 0.06325 µM): 0.802 | relative viability ([4]; first compound 0.2 µM): 0.825 | relative viability ([4]; first compound 0.6325 µM): 0.452 | relative viability ([4]; first compound 2 µM): 0.402

NCI-H2342
relative viability ([3]; first compound 0.08 µM): 0.78 | relative viability ([3]; first compound 0.8 µM): 0.723 | relative viability ([3]; first compound 2.53 µM): 0.707 | relative viability ([3]; first compound 8 µM): 0.799 | relative viability ([4]; first compound 0.02 µM): 0.305 | relative viability ([4]; first compound 0.06325 µM): 0.319 | relative viability ([4]; first compound 0.2 µM): 0.291 | relative viability ([4]; first compound 0.6325 µM): 0.274 | relative viability ([4]; first compound 2 µM): 0.278

SW 900
relative viability ([3]; first compound 0.08 µM): 0.506 | relative viability ([3]; first compound 0.8 µM): 0.752 | relative viability ([3]; first compound 2.53 µM): 0.651 | relative viability ([3]; first compound 8 µM): 0.361 | relative viability ([4]; first compound 0.02 µM): 0.795 | relative viability ([4]; first compound 0.06325 µM): 0.589 | relative viability ([4]; first compound 0.2 µM): 0.661 | relative viability ([4]; first compound 0.6325 µM): 0.444 | relative viability ([4]; first compound 2 µM): 0.248
